Read-outs that look alike come from different tables or passages of the source. Square brackets hold non-standard residues; d marks the D form. Peptide text beside a SMILES is read from it. * marks the point of attachment. Dolaproine = CO[C@@H]([C@@H]1CCCN1)[C@@H](C)C(=O)O; Dil = CC[C@H](C)[C@H](NC)[C@@H](CC(=O)O)OC; X1 = C[C@@H](N*)[C@@H](O)c1ccccc1; NMeV = CN[C@H](C(=O)O)C(C)C
How the values were obtained:
[1] = system: KM20L2 (colon) cancer cell line; assay: NCI sulforhodamine B growth inhibition, KM20L2; assay type: cell-based, human; details: KM20L2, 48 h
Protocol: (§1) Next, serial dilutions of the compounds were added.

[2] = system: BXPC-3 (pancreas) cancer cell line; assay: NCI sulforhodamine B growth inhibition, BXPC-3; assay type: cell-based, human; details: BXPC-3, 48 h
Protocol: as §1

[3] = system: MCF-7 (breast) cancer cell line; assay: NCI sulforhodamine B growth inhibition, MCF-7; assay type: cell-based, human; details: MCF-7, 48 h
Protocol: as §1

[4] = system: NCI-H460 (lung) cancer cell line; assay: NCI sulforhodamine B growth inhibition, NCI-H460; assay type: cell-based, human; details: NCI-H460, 48 h
Protocol: as §1

[5] = system: SF-268 (CNS) cancer cell line; assay: NCI sulforhodamine B growth inhibition, SF-268; assay type: cell-based, human; details: SF-268, 48 h
Protocol: as §1

[6] = system: DU-145 (prostate) cancer cell line; assay: NCI sulforhodamine B growth inhibition, DU-145; assay type: cell-based, human; details: DU-145, 48 h
Protocol: as §1

Human Cancer Cell Lines = system: Human Cancer Cell Lines
Protocol: Inhibition of human cancer cell growth was assessed using the National Cancer Institute's standard sulforhodamine B assay as previously described.^10 In summary, cells in a 5% fetal bovine serum/RPMI1640 medium were inoculated in 96-well plates and incubated for 24 hrs. Next, serial dilutions of the compounds were added. After 48 h, the plates were fixed with trichloroacetic acid, stained with sulforhodamine B, and read with an automated microplate reader.

[7] = bracketed value, read-out: GI50

Compound | GI50 [1] [ng/mL] | GI50 [1, 7] [nM] | GI50 [2] [ng/mL] | GI50 [2, 7] [nM] | GI50 [3] [ng/mL] | GI50 [3, 7] [nM] | GI50 [4] [ng/mL] | GI50 [4, 7] [nM] | GI50 [5] [ng/mL] | GI50 [5, 7] [nM] | GI50 [6] [ng/mL] | GI50 [6, 7] [nM] | increase in cancer cell growth inhibition as compared to auristatin AQ (Human Cancer Cell Lines; comparison with auristatin AQ) | inhibition level compared with dolastatin 10 (Human Cancer Cell Lines; in one of the experiments)
CC[C@H](C)[C@@H]([C@@H](CC(=O)N1CCC[C@H]1[C@H](OC)[C@@H](C)C(=O)N[C@H](C)[C@@H](O)c1ccccc1)OC)N(C)C(=O)[C@@H](NC(=O)[C@H](C(C)C)N(C)C)C(C)C [Auristatin E, auristatin E, reference compound] | 0.36 | 0.492 | >1 | > 1.37 | 0.17 | 0.232 | 0.39 | 0.533 | 0.36 | 0.492 | 0.31 | 0.424 | – | –
CC[C@H](C)[C@@H]([C@@H](CC(=O)N1CCC[C@H]1[C@H](OC)[C@@H](C)C(=O)N[C@H](C)[C@@H](O)c1ccccc1)OC)N(C)C(=O)[C@@H](NC(=O)[C@@H](NC)C(C)C)C(C)C [Desmethylauristatin E, desmethyl auristatin E, reference compound] (H-[NMeV]V[Dil][Dolaproine]-X1) | 0.43 | 0.599 | >1 | > 1.39 | 0.29 | 0.404 | 0.49 | 0.683 | 0.31 | 0.432 | 0.3 | 0.418 | – | –
CC[C@H](C)[C@@H]([C@@H](CC(=O)N1CCC[C@H]1[C@H](OC)[C@@H](C)C(=O)N[C@@H](Cc1ccccc1)c1nccs1)OC)N(C)C(=O)[C@@H](NC(=O)[C@H](C(C)C)N(C)C)C(C)C [Dolastatin 10, dolastatin 10, reference compound] | 0.008 | 0.01 | 0.04 | 0.051 | 0.0042 | 0.005 | 0.18 | 0.229 | 0.0043 | 0.006 | 0.0052 | 0.007 | – | –
CC[C@H](C)[C@@H]([C@@H](CC(=O)N1CCC[C@H]1[C@H](OC)[C@@H](C)C(=O)NCCc1ccc2ccccc2n1)OC)N(C)C(=O)[C@@H](NC(=O)[C@H](C(C)C)N(C)C)C(C)C [Quinstatin 2, 2-(1′-Dov-Val-Dil-Dap-2′-ethyl)-quinoline] | 0.33 | 0.438 | 9.3 | 12.3 | 0.31 | 0.412 | 5.1 | 6.78 | 0.23 | 0.306 | 0.31 | 0.412 | ten to one hundred times | –
CC[C@H](C)[C@@H]([C@@H](CC(=O)N1CCC[C@H]1[C@H](OC)[C@@H](C)C(=O)NCCc1cnc2ccccc2c1)OC)N(C)C(=O)[C@@H](NC(=O)[C@H](C(C)C)N(C)C)C(C)C [Quinstatin 3, 3-(1′-Dov-Val-Dil-Dap-2′-ethyl)-quinoline] | 0.4 | 0.53 | 21 | 27.9 | 0.23 | 0.31 | 31 | 41.2 | 0.29 | 0.38 | 0.2 | 0.26 | – | –
CC[C@H](C)[C@@H]([C@@H](CC(=O)N1CCC[C@H]1[C@H](OC)[C@@H](C)C(=O)NCCc1ccc2ncccc2c1)OC)N(C)C(=O)[C@@H](NC(=O)[C@H](C(C)C)N(C)C)C(C)C [Quinstatin 6, Dov-Val-Dil-Dap-2-(quinolin-6-yl)ethylamine] | 0.39 | 0.518 | 2 | 2.66 | 0.4 | 0.532 | 4.3 | 5.71 | 0.3 | 0.399 | 0.3 | 0.399 | – | –
CC[C@H](C)[C@@H]([C@@H](CC(=O)N1CCC[C@H]1[C@H](OC)[C@@H](C)C(=O)NCCc1ccc2cccnc2c1)OC)N(C)C(=O)[C@@H](NC(=O)[C@H](C(C)C)N(C)C)C(C)C [Quinstatin 7, 7-(1′-Dov-Val-Dil-Dap-2′-ethyl)-quinoline] | 0.041 | 0.054 | 3.1 | 4.12 | 0.03 | 0.039 | 11 | 14.6 | 0.024 | 0.032 | 0.03 | 0.04 | – | –
CC[C@H](C)[C@@H]([C@@H](CC(=O)N1CCC[C@H]1[C@H](OC)[C@@H](C)C(=O)NCCc1cccc2cccnc12)OC)N(C)C(=O)[C@@H](NC(=O)[C@H](C(C)C)N(C)C)C(C)C [Quinstatin 8, 8-(1′-Dov-Val-Dil-Dap-2′-ethyl)-quinoline] | 0.04 | 0.053 | 0.5 | 0.425 | 0.04 | 0.053 | 0.9 | 1.19 | 0.023 | 0.03 | 0.04 | 0.053 | – | at the dolastatin 10 level, but not consistently

— patent US10435435B2, “Quinstatin compounds” (THE ARIZONA BOARD OF REGENTS ON BEHALF OF ARIZONA STATE …, priority 2015, dated 2019)
